Measurements reported in ChEMBL document CHEMBL3045009, “Synthesis and Biological Activity of the Functional Derivatives of 3- and 4-(Dimethyl-aminomethyl)-1,2-dithiolanes” (1992).

Columns and labels:
Assay type in all cases: functional
Spodoptera litura = assay: Insecticidal activity against Spodoptera litura assessed as mortality at 500 ppm; settings: for mortality at 500 ppm: Spodoptera litura
Tetranychus urticae = assay: Acaricidal activity against Tetranychus urticae (two-spotted spider mite) assessed as mortality at 500 ppm; settings: for mortality at 500 ppm: Tetranychus urticae
Nilaparvata lugens = assay: Insecticidal activity against Nilaparvata lugens (brown planthopper) assessed as mortality at 50 ppm; settings: for mortality at 50 ppm: Nilaparvata lugens
Culex pipiens molestus = assay: Insecticidal activity against Culex pipiens molestus assessed as mortality at 5 ppm; settings: for mortality at 5 ppm: Culex pipiens
Chilo suppressalis [1] = assay: Insecticidal activity against Chilo suppressalis (rice stem borer) assessed as mortality at 50 ug/g administered as topical application
Chilo suppressalis [2] = assay: Insecticidal activity against Chilo suppressalis (rice stem borer) assessed as mortality compound administered as topical application

In the case of CCOP(=O)(OCC)[C@]1(C#N)SC[C@H](CN(C)C)CS1.O=C(O)C(=O)O, the mortality at 500 ppm (Spodoptera litura) is reported as 10%, the mortality at 500 ppm (Tetranychus urticae) is reported as 100% and the mortality at 50 ppm (Nilaparvata lugens) is reported as 80%. It also gave a mortality at 5 ppm (Culex pipiens molestus) of 100% and a mortality (Chilo suppressalis [1]) of 60%.
Work on CN(C)CC1CSC(C(=O)c2ccccc2)(C(=O)c2ccccc2)SC1 yielded a mortality (Spodoptera litura) of 0%, a mortality (Tetranychus urticae) of 80% and an LD50 (Chilo suppressalis [2]) of 13.5 mg/kg. The mortality (Nilaparvata lugens) was 100%, the mortality (Culex pipiens molestus) was 100% and the mortality (Chilo suppressalis [1]) was 100%.
Work on CN(C)CC1CSC(C(=O)c2ccccc2)(C(=O)c2ccccc2)SC1.O=C(O)C(=O)O yielded a mortality at 500 ppm (Spodoptera litura) of 0%, a mortality at 500 ppm (Tetranychus urticae) of 100% and a mortality at 50 ppm (Nilaparvata lugens) of 100%. For the same compound, the mortality at 5 ppm (Culex pipiens molestus) was 100% and the mortality (Chilo suppressalis [1]) was 100%.
For CN(C)C[C@H]1CS[C@](C#N)(c2ccc(Cl)cc2)SC1, the mortality at 500 ppm (Spodoptera litura) was 0%, the mortality at 500 ppm (Tetranychus urticae) was 70% and the mortality at 50 ppm (Nilaparvata lugens) was 100%. For the same compound, the mortality at 5 ppm (Culex pipiens molestus) was 100% and the mortality (Chilo suppressalis [1]) was 100%.
CN(C)C[C@H]1CS[C@@](C#N)(c2ccc(Cl)cc2)SC1 was tested, and the mortality at 500 ppm (Spodoptera litura) was 0%, the mortality at 500 ppm (Tetranychus urticae) was 90% and the mortality at 50 ppm (Nilaparvata lugens) was 100%. The mortality at 5 ppm (Culex pipiens molestus) was 100% and the mortality (Chilo suppressalis [1]) was 100%.
With CCN(CC)C(=O)[C@]1(C#N)SC[C@@H](CN(C)C)CS1.O=C(O)C(=O)O the mortality at 500 ppm (Spodoptera litura) was 100%, the mortality at 500 ppm (Tetranychus urticae) was 100% and the LD50 (Chilo suppressalis [2]) was 5.8 mg/kg. For the same compound, the mortality at 50 ppm (Nilaparvata lugens) was 100%, the mortality at 5 ppm (Culex pipiens molestus) was 95% and the mortality (Chilo suppressalis [1]) was 100%.
Work on CCN(CC)C(=O)[C@]1(C#N)SC[C@H](CN(C)C)CS1 yielded a mortality (Spodoptera litura) of 100%, a mortality (Tetranychus urticae) of 90% and an LD50 (Chilo suppressalis [2]) of 5.6 mg/kg. It also gave a mortality (Nilaparvata lugens) of 100%, a mortality (Culex pipiens molestus) of 100% and a mortality (Chilo suppressalis [1]) of 100%.
CCN(CC)C(=O)[C@]1(C#N)SC[C@H](CN(C)C)CS1.O=C(O)C(=O)O was tested, and the mortality at 500 ppm (Spodoptera litura) was 100%, the mortality at 500 ppm (Tetranychus urticae) was 100% and the LD50 (Chilo suppressalis [2]) was 7.2 mg/kg. For the same compound, the mortality at 50 ppm (Nilaparvata lugens) was 80%, the mortality at 5 ppm (Culex pipiens molestus) was 100% and the mortality (Chilo suppressalis [1]) was 100%.
In the case of CCOP(=O)(OCC)[C@]1(C#N)SC[C@@H](CN(C)C)CS1.O=C(O)C(=O)O, the mortality at 500 ppm (Spodoptera litura) is reported as 70%, the mortality at 500 ppm (Tetranychus urticae) is reported as 100% and the mortality at 50 ppm (Nilaparvata lugens) is reported as 100%. For the same compound, the mortality at 5 ppm (Culex pipiens molestus) was 100% and the mortality (Chilo suppressalis [1]) was 100%.
In the case of CCOC(=O)[C@H]1SC[C@H](CN(C)C)CS1.O=C(O)C(=O)O, the mortality at 500 ppm (Spodoptera litura) is reported as 0%, the mortality at 500 ppm (Tetranychus urticae) is reported as 100% and the mortality at 50 ppm (Nilaparvata lugens) is reported as 30%. For the same compound, the mortality at 5 ppm (Culex pipiens molestus) was 5% and the mortality (Chilo suppressalis [1]) was 0%.
In the case of CN(C)CC1CSSSC1.O=C(O)C(=O)O, the mortality at 500 ppm (Spodoptera litura) is reported as 100%, the mortality at 500 ppm (Tetranychus urticae) is reported as 100% and the LD50 (Chilo suppressalis [2]) is reported as 7.5 mg/kg. The mortality at 50 ppm (Nilaparvata lugens) was 100%, the mortality at 5 ppm (Culex pipiens molestus) was 100% and the mortality (Chilo suppressalis [1]) was 100%.
For CN(C)CC1CCSS1.O=C(O)C(=O)O (stereo not drawn), the mortality at 500 ppm (Spodoptera litura) was 30%, the mortality at 500 ppm (Tetranychus urticae) was 100% and the LD50 (Chilo suppressalis [2]) was 4.3 mg/kg. It also gave a mortality at 50 ppm (Nilaparvata lugens) of 80%, a mortality at 5 ppm (Culex pipiens molestus) of 100% and a mortality (Chilo suppressalis [1]) of 100%.
Compound CN(C)CC1CSSC1.O=C(O)C(=O)O has a mortality at 500 ppm (Spodoptera litura) of 90%, a mortality at 500 ppm (Tetranychus urticae) of 100% and an LD50 (Chilo suppressalis [2]) of 11.4 mg/kg. The mortality at 50 ppm (Nilaparvata lugens) was 100%, the mortality at 5 ppm (Culex pipiens molestus) was 100% and the mortality (Chilo suppressalis [1]) was 100%.
CN(C)CC(S)CCS.O=C(O)C(=O)O (stereo not drawn) showed a mortality at 500 ppm (Spodoptera litura) of 60%, a mortality at 500 ppm (Tetranychus urticae) of 100% and a mortality at 50 ppm (Nilaparvata lugens) of 100%. It also gave a mortality at 5 ppm (Culex pipiens molestus) of 45% and a mortality (Chilo suppressalis [1]) of 100%.
CN(C)CC(CS)CS.O=C(O)C(=O)O was tested, and the mortality at 500 ppm (Spodoptera litura) was 30%, the mortality at 500 ppm (Tetranychus urticae) was 100% and the mortality at 50 ppm (Nilaparvata lugens) was 100%. For the same compound, the mortality at 5 ppm (Culex pipiens molestus) was 100% and the mortality (Chilo suppressalis [1]) was 100%.
Work on CNC(=O)SCCC(CN(C)C)SC(=O)NC (stereo not drawn) yielded a mortality at 500 ppm (Spodoptera litura) of 0%, a mortality at 500 ppm (Tetranychus urticae) of 30% and a mortality at 50 ppm (Nilaparvata lugens) of 100%. It also gave a mortality at 5 ppm (Culex pipiens molestus) of 5% and a mortality (Chilo suppressalis [1]) of 100%.
In the case of CC(C)NC(=O)SCCC(CN(C)C)SC(=O)NC(C)C (stereo not drawn), the mortality at 500 ppm (Spodoptera litura) is reported as 0%, the mortality at 500 ppm (Tetranychus urticae) is reported as 50% and the LD50 (Chilo suppressalis [2]) is reported as 24.5 mg/kg. For the same compound, the mortality at 50 ppm (Nilaparvata lugens) was 45%, the mortality at 5 ppm (Culex pipiens molestus) was 65% and the mortality (Chilo suppressalis [1]) was 100%.
CNC(=S)SCCC(CN(C)C)SC(=S)NC (stereo not drawn) showed a mortality at 500 ppm (Spodoptera litura) of 10%, a mortality at 500 ppm (Tetranychus urticae) of 80% and an LD50 (Chilo suppressalis [2]) of 15.8 mg/kg. For the same compound, the mortality at 50 ppm (Nilaparvata lugens) was 70%, the mortality at 5 ppm (Culex pipiens molestus) was 70% and the mortality (Chilo suppressalis [1]) was 100%.
Compound CC(=O)SCC(CSC(C)=O)CN(C)C.O=C(O)C(=O)O has a mortality at 500 ppm (Spodoptera litura) of 70%, a mortality at 500 ppm (Tetranychus urticae) of 100% and an LD50 (Chilo suppressalis [2]) of 32.5 mg/kg. It also gave a mortality at 50 ppm (Nilaparvata lugens) of 100%, a mortality at 5 ppm (Culex pipiens molestus) of 100% and a mortality (Chilo suppressalis [1]) of 100%.
Compound CN(C)CC(CSC(=O)c1ccccc1)CSC(=O)c1ccccc1 has a mortality at 500 ppm (Spodoptera litura) of 10%, a mortality at 500 ppm (Tetranychus urticae) of 100% and an LD50 (Chilo suppressalis [2]) of 4 mg/kg. For the same compound, the mortality at 50 ppm (Nilaparvata lugens) was 100%, the mortality at 5 ppm (Culex pipiens molestus) was 100% and the mortality (Chilo suppressalis [1]) was 100%.
Compound CCC(=O)SCC(CSC(=O)CC)CN(C)C has a mortality (Spodoptera litura) of 40%, a mortality (Tetranychus urticae) of 100% and an LD50 (Chilo suppressalis [2]) of 7.6 mg/kg. It also gave a mortality (Nilaparvata lugens) of 70%, a mortality (Culex pipiens molestus) of 100% and a mortality (Chilo suppressalis [1]) of 100%.
With CCC(=O)SCC(CSC(=O)CC)CN(C)C.O=C(O)C(=O)O the mortality (Spodoptera litura) was 0%, the mortality at 500 ppm (Tetranychus urticae) was 100% and the LD50 (Chilo suppressalis [2]) was 6.6 mg/kg. For the same compound, the mortality at 50 ppm (Nilaparvata lugens) was 70%, the mortality (Culex pipiens molestus) was 75% and the mortality (Chilo suppressalis [1]) was 100%.
